In patent publication US20260308145A1, “CDK2 INHIBITORS AND METHODS OF USING SAME” (Shenzhen lonova Life Science Co., Ltd., priority 2023, published 2026):

Columns and labels:
Assay type in all cases: biochemical
CDK2/cyclinE1 = target: T1, CDK2/cyclinE1 (Homo sapiens, UniProt P24941); assay: Cyclin-dependent kinase activity assay (continuous ATP coupling assay), CDK2/cyclinE1; settings: CDK2/cyclinE1 5 nM, ATP 300 μM, Rb copeptide 100 μM, 15 min preincubation, pH 7.5, 1% DMSO
T1 construct: purchased Carna Biosciences 04-165
How it was run: (§1)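 PK/LDH-coupled continuous assay, ATP at each kinase's Km, Tris pH 7.5 with 1% DMSO final; enzyme preincubated 15 min with compound (10 μM to 0.05 nM, 1:3), NADH fluorescence decrease (ex 340/em 460) gave velocities. IC50 by 4-variable fit; Ki by quadratic/Morrison fit.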

CDK4/cyclinD3 = target: T2, CDK4/cyclinD3 (Homo sapiens, UniProt P11802); assay: Cyclin-dependent kinase activity assay (continuous ATP coupling assay), CDK4/cyclinD3; settings: CDK4/cyclinD3 60 nM, ATP 500 μM, Rb copeptide 500 μM, 15 min preincubation, pH 7.5, 1% DMSO
T2 construct: purchased Carna Biosciences 04-105
How it was run: as §1

CDK1/cyclinB1 = target: T3, CDK1/cyclinB1 (Homo sapiens, UniProt P06493); assay: Cyclin-dependent kinase activity assay (continuous ATP coupling assay), CDK1/cyclinB1; settings: CDK1/cyclinB1 10 nM, ATP 200 μM, Histone1 copeptide 100 μM, 15 min preincubation, pH 7.5, 1% DMSO
T3 construct: purchased Carna Biosciences 04-102
How it was run: as §1

CDK6/cyclinD3 = target: T4, CDK6/cyclinD3 (Homo sapiens, UniProt Q00534); assay: Cyclin-dependent kinase activity assay (continuous ATP coupling assay), CDK6/cyclinD3; settings: CDK6/cyclinD3 25 nM, ATP 500 μM, Rb copeptide 500 μM, 15 min preincubation, pH 7.5, 1% DMSO
T4 construct: purchased Carna Biosciences 04-107
How it was run: as §1

T3 sequence (P06493 whole entry): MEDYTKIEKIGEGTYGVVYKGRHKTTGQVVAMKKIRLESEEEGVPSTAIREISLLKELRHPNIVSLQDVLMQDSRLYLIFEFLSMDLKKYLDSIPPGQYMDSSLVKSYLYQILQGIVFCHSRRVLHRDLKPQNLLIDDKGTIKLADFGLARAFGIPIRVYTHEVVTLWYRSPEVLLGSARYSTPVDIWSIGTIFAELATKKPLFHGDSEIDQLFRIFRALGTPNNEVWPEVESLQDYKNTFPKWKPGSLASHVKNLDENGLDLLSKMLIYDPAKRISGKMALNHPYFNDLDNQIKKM
T3 sequence (P14635 whole entry partner): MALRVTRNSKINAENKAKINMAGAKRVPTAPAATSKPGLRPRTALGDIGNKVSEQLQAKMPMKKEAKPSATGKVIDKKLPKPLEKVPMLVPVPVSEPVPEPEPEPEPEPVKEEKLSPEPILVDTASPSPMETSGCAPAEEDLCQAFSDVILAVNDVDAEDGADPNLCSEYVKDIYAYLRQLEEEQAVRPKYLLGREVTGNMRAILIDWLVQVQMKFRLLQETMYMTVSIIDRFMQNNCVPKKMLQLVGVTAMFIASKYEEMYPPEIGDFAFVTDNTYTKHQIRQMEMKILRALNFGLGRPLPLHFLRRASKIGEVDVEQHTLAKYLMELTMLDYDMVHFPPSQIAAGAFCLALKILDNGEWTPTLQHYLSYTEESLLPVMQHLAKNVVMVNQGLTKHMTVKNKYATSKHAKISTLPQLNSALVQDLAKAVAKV
T4 sequence (Q00534 whole entry): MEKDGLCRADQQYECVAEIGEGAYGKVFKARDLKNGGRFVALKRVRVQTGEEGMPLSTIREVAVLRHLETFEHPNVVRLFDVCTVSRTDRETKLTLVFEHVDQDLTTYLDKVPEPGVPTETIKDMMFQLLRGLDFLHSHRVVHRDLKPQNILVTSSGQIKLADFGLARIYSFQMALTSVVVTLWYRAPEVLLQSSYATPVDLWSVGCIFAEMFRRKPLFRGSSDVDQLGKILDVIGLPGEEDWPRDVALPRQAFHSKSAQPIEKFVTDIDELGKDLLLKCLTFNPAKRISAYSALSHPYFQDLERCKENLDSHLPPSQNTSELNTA
T4 sequence (P30281 whole entry partner): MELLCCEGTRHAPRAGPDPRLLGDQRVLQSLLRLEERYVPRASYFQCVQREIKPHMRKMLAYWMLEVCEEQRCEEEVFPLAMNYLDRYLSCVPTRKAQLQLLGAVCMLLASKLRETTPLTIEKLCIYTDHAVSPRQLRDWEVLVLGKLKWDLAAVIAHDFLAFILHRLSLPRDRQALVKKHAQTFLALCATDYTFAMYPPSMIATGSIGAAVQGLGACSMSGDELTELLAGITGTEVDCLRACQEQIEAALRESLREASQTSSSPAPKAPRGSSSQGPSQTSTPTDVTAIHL
T2 sequence (P11802 whole entry): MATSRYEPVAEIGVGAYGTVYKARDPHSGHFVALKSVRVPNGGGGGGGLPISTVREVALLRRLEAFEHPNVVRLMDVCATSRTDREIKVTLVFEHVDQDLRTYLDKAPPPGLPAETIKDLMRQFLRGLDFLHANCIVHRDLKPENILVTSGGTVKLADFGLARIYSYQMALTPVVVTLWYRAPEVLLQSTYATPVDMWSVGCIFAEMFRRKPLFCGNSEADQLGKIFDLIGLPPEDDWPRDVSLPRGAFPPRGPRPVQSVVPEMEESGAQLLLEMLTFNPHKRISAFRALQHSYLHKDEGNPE
T2 sequence (P30281 whole entry partner): as the sequence (P30281 whole entry partner) above

IC50 (CDK2/cyclinE1) [nM] | IC50 (CDK4/cyclinD3) [nM] | IC50 (CDK1/cyclinB1) [nM] | IC50 (CDK6/cyclinD3) [nM] | SMILES
10 to 100 | 10 to 100 | 10 to 100 | 10 to 100 | CNS(=O)(=O)c1ccc(Nc2ncc(C(F)(F)F)c(-n3cc(C(C)(C)C#N)cn3)n2)cc1 [Example 49, 4-[[4-[4-(1-cyano-1-methyl-ethyl)pyrazol-1-yl]-5-(trifluoromethyl)pyrimidin-2-yl]amino]-N-methyl-benzene sulfonamide]
≤ 10 | 10 to 100 | ≥ 100 | 10 to 100 | CNS(=O)(=O)c1ccc(Nc2ncc(C(F)(F)F)c(-n3cc(C4CC4)cn3)n2)cc1 [Example 50]
10 to 100 | ≥ 100 | ≥ 100 | ≥ 100 | CNS(=O)(=O)c1ccc(Nc2ncc(C(F)(F)F)c(-n3cc(C4(C#N)CC4)cn3)n2)cc1 [Example 51, 4-[[4-[4-(1-cyanocyclopropyl)pyrazol-1-yl]-5-(trifluoromethyl)pyrimidin-2-yl]amino]-N-methyl-benzene sulfonamide]
10 to 100 | ≥ 100 | ≥ 100 | ≥ 100 | [2H]C([2H])([2H])NS(=O)(=O)c1ccc(Nc2ncc(C(F)(F)F)c(-n3ccc(C(F)(F)F)n3)n2)cc1 [Example 54]
≥ 100 | ≥ 100 | ≥ 100 | ≥ 100 | CNS(=O)(=O)c1ccc(Nc2ncc(C(F)(F)F)c(-n3ccc(C4CC4)n3)n2)cc1 [Example 56]
10 to 100 | ≥ 100 | ≥ 100 | ≥ 100 | CNS(=O)(=O)c1ccc(Nc2ncc(C(F)(F)F)c(-n3nccc3C3CC3)n2)cc1 [Example 57]
≤ 10 | 10 to 100 | 10 to 100 | 10 to 100 | [2H]C([2H])([2H])NS(=O)(=O)c1ccc(Nc2ncc(C(F)(F)F)c(-n3cc(CC(C)(C)O)cn3)n2)cc1 [Example 58]
≤ 10 | 10 to 100 | 10 to 100 | 10 to 100 | CNS(=O)(=O)c1ccc(Nc2ncc(C(F)(F)F)c(-n3cc(C(C)(C)CO)cn3)n2)cc1 [Example 59]
10 to 100 | 10 to 100 | 10 to 100 | ≥ 100 | CNS(=O)(=O)c1ccc(Nc2ncc(C(F)(F)F)c(-n3cc(C(C)(C)C(C)(C)O)cn3)n2)cc1 [Example 60]
≤ 10 | 10 to 100 | ≥ 100 | ≥ 100 | [2H]C([2H])([2H])NS(=O)(=O)c1ccc(Nc2ncc(C(F)(F)F)c(-n3cc(CCC(C)(C)O)cn3)n2)cc1 [Example 61]
10 to 100 | 10 to 100 | ≥ 100 | ≥ 100 | CNS(=O)(=O)c1ccc(Nc2ncc(F)c(-n3cc(CC(C)(C)O)cn3)n2)cc1 [Example 62]
10 to 100 | 10 to 100 | ≥ 100 | 10 to 100 | CNS(=O)(=O)c1ccc(Nc2ncc(C)c(-n3cc(CC(C)(C)O)cn3)n2)cc1 [Example 63]
≤ 10 | 10 to 100 | ≥ 100 | 10 to 100 | CNS(=O)(=O)c1ccc(Nc2ncc(C#N)c(-n3cc(CC(C)(C)O)cn3)n2)cc1 [Example 64]
≤ 10 | 10 to 100 | 10 to 100 | 10 to 100 | CNS(=O)(=O)c1ccc(Nc2ncc(Cl)c(-n3cc(CC(C)(C)O)cn3)n2)cc1 [Example 65]
10 to 100 | 10 to 100 | ≥ 100 | 10 to 100 | CNS(=O)(=O)c1ccc(Nc2ncc(C(F)F)c(-n3cc(CC(C)(C)O)cn3)n2)cc1 [Example 66]
10 to 100 | ≥ 100 | ≥ 100 | ≥ 100 | CNS(=O)(=O)c1ccc(Nc2nccc(-n3cc(CC(C)(C)O)cn3)n2)cc1 [Example 67]
≤ 10 | 10 to 100 | 10 to 100 | 10 to 100 | CNS(=O)(=O)c1ccc(Nc2ncc(Br)c(-n3cc(CC(C)(C)O)cn3)n2)cc1 [Example 68]
10 to 100 | ≥ 100 | ≥ 100 | ≥ 100 | CNS(=O)(=O)c1ccc(Nc2ncc(C(F)(F)F)c(-n3ncc(CC(C)(C)O)c3C)n2)cc1 [Example 69]
10 to 100 | ≥ 100 | ≥ 100 | ≥ 100 | CNS(=O)(=O)c1ccc(Nc2ncc(C(F)(F)F)c(-n3cc(CC(C)(C)O)c(C)n3)n2)cc1 [Example 70]

IC50 (CDK2/cyclinE1) [nM] | IC50 (CDK4/cyclinD3) [nM] | IC50 (CDK1/cyclinB1) [nM] | IC50 (CDK6/cyclinD3) [nM] | SMILES
≤ 10 | ≤ 10 | 10 to 100 | 10 to 100 | CC(C)(O)Cc1cnn(-c2nc(Nc3ccc(S(N)(=O)=O)cc3)ncc2C(F)(F)F)c1 [Example 71]
≤ 10 | 10 to 100 | 10 to 100 | ≥ 100 | CNS(=O)(=O)c1ccc(Nc2ncc(C(F)(F)F)c(-n3cc(CC(C)(C)N)cn3)n2)cc1 [Example 72, 4-[[4-[4-(2-amino-2-methyl-propyl)pyrazol-1-yl]-5-(trifluoromethyl)pyrimidin-2-yl]amino]-N-methyl-benzene sulfonamide]
10 to 100 | 10 to 100 | ≥ 100 | 10 to 100 | CC(C)(O)Cc1cnn(-c2nc(Nc3ccc(S(=O)(=O)NC4CC4)cc3)ncc2C(F)(F)F)c1 [Example 73]
≤ 10 | 10 to 100 | 10 to 100 | 10 to 100 | CNS(=O)(=O)c1ccc(Nc2ncc(C(F)(F)F)c(-n3cc(C4CCN(C)CC4)cn3)n2)cc1 [Example 80, N-methyl-4-[[4-[4-(1-methyl-4-piperidyl)pyrazol-1-yl]-5-(trifluoromethyl)pyrimidin-2-yl]amino]benzene sulfonamide]
10 to 100 | 10 to 100 | 10 to 100 | 10 to 100 | CNS(=O)(=O)c1ccc(Nc2ncc(C(F)(F)F)c(-n3cc(C4CCN(S(C)(=O)=O)CC4)cn3)n2)cc1 [Example 81]
≤ 10 | 10 to 100 | 10 to 100 | ≥ 100 | CNS(=O)(=O)c1ccc(Nc2ncc(C(F)(F)F)c(-n3cc(C4CCN(C(C)C)CC4)cn3)n2)cc1 [Example 82]
≤ 10 | ≥ 100 | ≥ 100 | ≥ 100 | CNS(=O)(=O)c1ccc(Nc2ncc(C(F)(F)F)c(-n3cc(N4CCN(C)CC4)cn3)n2)cc1 [Example 83]
10 to 100 | ≥ 100 | ≥ 100 | ≥ 100 | CNS(=O)(=O)c1ccc(Nc2ncc(C(F)(F)F)c(-n3cc(CN4CCNCC4)cn3)n2)cc1 [Example 84]
≤ 10 | 10 to 100 | 10 to 100 | ≥ 100 | CNS(=O)(=O)c1ccc(Nc2ncc(C(F)(F)F)c(-n3cc(N4CCNCC4)cn3)n2)cc1 [Example 85]
10 to 100 | ≥ 100 | ≥ 100 | ≥ 100 | CNS(=O)(=O)c1ccc(Nc2ncc(C(F)(F)F)c(-n3cc(-c4ccoc4)cn3)n2)cc1 [Example 86]
10 to 100 | ≥ 100 | ≥ 100 | ≥ 100 | CNS(=O)(=O)c1ccc(Nc2ncc(C(F)(F)F)c(-n3cc(N4CCCC4)cn3)n2)cc1 [Example 87, N-methyl-4-[[4-(4-pyrrolidin-1-ylpyrazol-1-yl)-5-(trifluoromethyl)pyrimidin-2-yl]amino]benzene sulfonamide]
10 to 100 | ≥ 100 | ≥ 100 | ≥ 100 | CNS(=O)(=O)c1ccc(Nc2ncc(C(F)(F)F)c(-n3cc(N4CCCC4=O)cn3)n2)cc1 [Example 88, N-methyl-4-[[4-[4-(2-oxopyrrolidin-1-yl)pyrazol-1-yl]-5-(trifluoromethyl)pyrimidin-2-yl]amino]benzene sulfonamide]
≤ 10 | 10 to 100 | 10 to 100 | 10 to 100 | CNS(=O)(=O)c1ccc(Nc2ncc(C(F)(F)F)c(-n3cc([C@H]4CCCN4)cn3)n2)cc1 [Example 91, (R)—N-methyl-4-((4-(4-(pyrrolidin-2-yl)-1H-pyrazol-1-yl)-5-(trifluoromethyl)pyrimidin-2-yl)amino)benzenesulfonamide]
≤ 10 | 10 to 100 | 10 to 100 | ≥ 100 | CNS(=O)(=O)c1ccc(Nc2ncc(C(F)(F)F)c(-n3cc([C@@H]4CCNC4)cn3)n2)cc1 [Example 94, (S)—N-methyl-4-((4-(4-(pyrrolidin-3-yl)-1H-pyrazol-1-yl)-5-(trifluoromethyl)pyrimidin-2-yl)amino)benzenesulfonamide]
≤ 10 | 10 to 100 | 10 to 100 | ≥ 100 | CNS(=O)(=O)c1ccc(Nc2ncc(C(F)(F)F)c(-n3cc(C4CN(C)C4)cn3)n2)cc1 [Example 97]
10 to 100 | ≥ 100 | ≥ 100 | ≥ 100 | CNS(=O)(=O)c1ccc(Nc2ncc(C(F)(F)F)c(-n3cc(C4CN(S(C)(=O)=O)C4)cn3)n2)cc1 [Example 98]
10 to 100 | ≥ 100 | ≥ 100 | ≥ 100 | CNS(=O)(=O)c1ccc(Nc2ncc(C(F)(F)F)c(-n3cc(C4CN(C(C)=O)C4)cn3)n2)cc1 [Example 99]
≤ 10 | ≥ 100 | 10 to 100 | ≥ 100 | CNS(=O)(=O)c1ccc(Nc2ncc(C(F)(F)F)c(-n3cc(N4CC(O)C4)cn3)n2)cc1 [Example 100]
